These results are taken from US20160151408A1, “NOVEL THERAPY FOR MULTIPLE SCLEROSIS USING VITAMIN D AND GUT BACTERIA” (California Institute of Technology, priority 2012, published 2016).

In experiment [1] the test system is Foxp3 among CD4+CD25+ T cells. The experiment can be described thus: Human monocyte / CD4+ T cell co-culture, Foxp3 expression. The experiment is classed as cell-based. How it is done: (§1) FIG. 5, panels A-C. Graphs and plots showing vitamin D augments the ability of PSA to promote TREGS. (FIG. 5, panel A) Mouse BMDCs were stimulated with PSA (or PBS), and Cyp27b1 transcript levels were measured by qRT-PCR. PSA induces the expression of Cyp27b1 from WT, but not TLR2−/− DCs. (FIG. 5, panel B) Mouse DCs were treated with PSA, washed and co-cultured with naïve CD4+ T cells. After 4 days, PSA increased Foxp3+TREGS (see % in red box). The vitamin D metabolite 25D augmented PSA-induced TREGS. (FIG. 5, panel C) Human monocytes were treated with PSA or vehicle, washed and co-cultured with CD4+ T cells from PBMCs of the same donor. The MR for Foxp3 among CD4+CD25+ T cells is shown, with or without TGFβ.
(§2) Next tested was whether vitamin D enhanced the ability of PSA to induce Foxp3+ TREG cells in vitro. BMDCs treated with PSA or PBS, with or without 25D, were incubated with CD4+ T cells from the spleens of mice. […] The Hewison group has described […] expression of CYP27B1 in human DCs, and has shown the effects of vitamin D on human TREG development in vitro [11]. However, the ability of PSA to induce human Foxp3+ TREG cells has not been reported. […] These studies further link PSA-induced TREGS to the vitamin D pathway. Thus, PSA and vitamin D may promote human TREG cells.

Another experiment relates to VDR. The experiment is described as follows: VDR mRNA levels in colonic tissue of germ-free mice. The settings on record: oral gavage of GF animals.
In experiment [2] the test system is experimental autoimmune encephalomyelitis (EAE). The experiment can be described thus: EAE clinical scores in mice on normal or vitamin D-deficient diet. The experiment is classed as in vivo, C57BL/6 mice. How it is done: FIG. 2, panels A-D. Graphs showing germ-free (GF) mice are attenuated in EAE. Female C57B1/6 mice were immunized subcutaneously (s.c.) with 150 μg MOG35-55 peptide with 200 μg of Complete Freund's adjuvant (CFA). On the same day and 2 days later, mice were injected intraperitoneally (i.p.) with 150 ng/mouse of pertussis toxin. (FIG. 2, panel A) Clinical EAE scores of SPF (dark symbols) and GF (light symbols). Data are representative of three independent experiments. (FIG. 2, panel B) Proportions of SPF and GF mice that develop various degrees of EAE, as assessed by clinical score. Results are combined from 4 experiments, with a total of 20 for SPF and 22 for GF mice. (FIG. 2, panel C) IFNγ and IL-17A cytokine ELISA analysis of cells harvested from draining lymph nodes of SPF and GF mice 8 days after immunization with MOG/CFA and cultured for 3 days in vitro with MOG peptide. (FIG. 2, panel D) CD4+CD25+Foxp3+ T cells at day 15 post-immunization. Cells were cultured for 3 days with MOG peptide, and analyzed by flow cytometry. Data from Lee et al., PANS, 2011 [2].
FIG. 6. […]
To asses EAE in mice, mice can be evaluated daily for signs of disease. The clinical course of the EAE can be scored according to the severity as follows: 0=no obvious signs of disease, 0.5=partial tail weakness (cannot raise tail against gravity), 1=limp tail, 1.5=limp tail and hindlimb weakness, 2=limp tail and impairment in righting reflex, 2.5=limp tail and hindlimb paresis (as determined by gait abnormality), 3=bilateral hindlimb paralysis, 3.5=bilateral hindlimb paralysis and forelimb paresis (as determined by in ability of the mouse to strongly grasp cage bars with the fore paws when placed on top), 4=moribund, 5=dead. […] Reduced symptoms of EAE can be evaluated by comparing clinical scores.
PSA protects mice from EAE [8]; however, it is unknown whether PSA protection requires vitamin D. To address whether PSA may serve as a viable therapy for vitamin D deficient MS patients, mice on vitamin D sufficient and deficient diets were raised, EAE was induced, and PSA's protective effects were assessed.

Experiment [3] relates to Cyp27b1. The experiment can be described thus: Colonic Cyp27b1 mRNA by qRT-PCR in mice. The conditions noted are these: mice on vitamin D deficient diet for 6 weeks, fed PSA for 2 weeks. (In general: Real-time PCR tracks product formation cycle by cycle.)
Experiment [4] concerns Cyp27b1. The experiment is described as follows: Cyp27b1 transcript levels in PSA-stimulated BMDCs (qRT-PCR). The experiment is classed as cell-based, Mouse. How it is done:
as §1
As described, the ability of PSA to protect against colitis & EAE in mice involves Foxp3+ TREGS [8,48]. The inventors recognize that vitamin D may play a pivotal role in microbial-induced TREGS, given the ability of 1,25D to promote TREG generation and the novel findings that PSA induces the vitamin D-system. First, the cell type that is responsible for PSA-dependent conversion of 25D to active 1,25D was made. The inventors have shown that PSA activates DCs, which prime TREG responses.

Another experiment relates to CD4+Foxp3+ T cells. The experiment is described as follows: Mouse DC / CD4+ T cell co-culture, Foxp3+ TREG induction. The experiment is classed as cell-based. How it is done:
as §1, §2

A further experiment has as its system EAE. The conditions noted are these: refs [6,8], [31,32]; cited from earlier work.
Another experiment concerns colitis. The conditions noted are these: refs [4,5,22]; cited from earlier work.

On to TGFβ [reference compound], for which the “PSA-mediated TREG cells, effect of added TGFβ” value in experiment [1] (with TGFβ) is on record as “does not further enhance PSA-mediated TREG cells”.
In the case of polysaccharide A [PSA], in the experiment with VDR, the “expression of VDR in the colon” value is given as “increases expression of VDR”. The “interaction of PSA with vitamin D in EAE protection” value in experiment [2] (PSA groups on sufficient versus deficient diet) is listed as “synergizes with vitamin D during protection from EAE”. In experiment [2] (day 14, vitamin D sufficient and deficient diets, PSA 100 μg/dose orally 3×/week), the “EAE clinical score at the peak of disease” value is on record as “protected from EAE”. For the same compound, the “EAE clinical score during the remission phase” value in experiment [2] (day 20-35, vitamin D sufficient diet versus deficient, PSA 100 μg/dose orally 3×/week) is recorded as “attenuated in disease during the remission phase if they were fed vitamin D sufficient diets”. The “Foxp3 expression in human TREGS” value in experiment [1] (monocytes treated with PSA, co-cultured with CD4+ T cells from PBMCs of the same donor) was “promotes Foxp3 expression in human TREGS in vitro”. For the same compound, in the experiment on Cyp27b1 [3], the “colonic Cyp27b1 expression” value was “induces increased colonic Cyp27b1”. The “Cyp27b1 expression from BMDCs” value in the experiment with Cyp27b1 [4] (TLR2−/− DCs) is on record as “did not respond to PSA”; in the experiment on Cyp27b1 [4] (WT bone marrow-derived dendritic cells), “induces Cyp27b1 expression”. Further, the “proportions of CD4+Foxp3+ T cells in culture” value in the experiment with CD4+Foxp3+ T cells (BMDCs treated with PSA, co-cultured with CD4+ T cells, 4 days) is listed as “increases the proportions of CD4+Foxp3+ T cells in culture”. Moreover, the “EAE disease (literature)” value in the experiment on EAE was “ameliorates and treats EAE”. Also, the “colitis (literature)” value in the experiment on colitis is “prevents and treats colitis in mice”.
Take `C=C1CC[C@H](O)C/C1=C/C=C1\CCC[C@]2(C)[C@@H]([C@H](C)CCCC(C)(C)O)CC[C@@H]12` [25D, 25-hydroxyvitamin-D3, reference compound]: the “PSA-induced CD4+Foxp3+ T cells, effect of co-treatment” value in the experiment on CD4+Foxp3+ T cells (BMDCs treated with PSA with 25D) is on record as “enhanced by co-treatment with 25D”.
`C=C1/C(=C\C=C2/CCC[C@]3(C)[C@@H]([C@H](C)CCCC(C)(C)O)CC[C@@H]23)C[C@@H](O)C[C@@H]1O` [1,25D, 1,25-dihydroxyvitamin D3, reference compound]: the “EAE disease (literature)” value with EAE was “protected from disease”.
